pIC50: −log10 of the molar value.
What was measured:
human V-1 receptor = molecular target: T1, human V-1 receptor (Homo sapiens, UniProt P37288); experiment: In vitro recombinant vasopressin receptor binding assay (V1 Bdg), displacement of 3H-arginine vasopressin; details: for inhibition at 0.1 µM: read-out: V1 Bdg (% inh, 0.1 uM); for V1 Bdg % inh: 1 uM
T1 construct: expressed in transfected cells; host or cells: HEK-293
Experimental: In vitro Recombinant Vasopressin Receptor Binding Assay
Compounds were assessed for their ability to displace ^3H-arginine vasopressin from the human V-1 or V-2 receptor in HEK-293 cells. Assay buffer is 50 mM Tris-Cl, 5 mM MgCl2, 0.1% BSA (pH 7.5) containing 5 ug/ml of aprotinin, leupeptin, pepstatin, 50 ug/ml bacitracin, and 1 mM Pefabloc. ^3H-vasopressin is ^3H-arginine-8-vasopressin (68.5 Ci/mmol, final concentration in assay is 0.65-0.75 nM). Into wells of 96-well round bottom polypropylene plates were added buffer, test compound, membrane (containing cloned human V-1 or V-2 receptor), and ^3H-vasopressin. The reaction plates were allowed to sit at room temperature for one hour. The samples were filtered through Unifilter GF/C plates (presoaked in 0.3 polyethyleneimine). The plates were washed 5 times with cold physiological saline containing 0.05% Tween 20. After drying, the bottom of the filter plates were sealed and 0.025 ml of Microscint-20 was added to each filter. The top of the plate was sealed, and the plate was counted. Non-specific binding was determined by the addition of 1.25 uM arginine-8-vasopressin in those wells.

V2 = V2 (Homo sapiens, UniProt P30518); experiment: In vitro recombinant vasopressin receptor binding assay (V2 Bdg), displacement of 3H-arginine vasopressin; set-up: expressed in transfected cells; host or cells: HEK-293; details: for pIC50: membrane with cloned human V-2 receptor (HEK-293); for V2 Bdg % inh: 0.1 uM, printed in parentheses in place of IC50
Summary of the method: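 Displacement of ³H-vasopressin from membranes of HEK-293 cells bearing cloned human V-2 receptor, incubated with test compound one hour at room temperature. Bound label was collected on PEI-soaked GF/C filters, washed with cold saline/0.05% Tween 20, and counted by scintillation.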

T1 sequence (P37288 whole entry): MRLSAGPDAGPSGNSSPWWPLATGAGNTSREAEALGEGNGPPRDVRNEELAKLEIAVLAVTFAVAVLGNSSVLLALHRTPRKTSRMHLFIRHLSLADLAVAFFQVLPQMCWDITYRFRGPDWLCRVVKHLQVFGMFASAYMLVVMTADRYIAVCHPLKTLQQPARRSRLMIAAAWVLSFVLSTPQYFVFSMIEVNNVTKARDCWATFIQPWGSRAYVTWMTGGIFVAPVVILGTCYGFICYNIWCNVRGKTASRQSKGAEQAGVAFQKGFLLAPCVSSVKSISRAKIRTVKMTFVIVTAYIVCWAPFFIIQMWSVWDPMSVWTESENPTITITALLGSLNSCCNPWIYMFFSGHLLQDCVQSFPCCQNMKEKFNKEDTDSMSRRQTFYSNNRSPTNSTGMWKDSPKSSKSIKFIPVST

Compound	inhibition at 0.1 µM (human V-1 receptor) [%]	pIC50 (V2)	V1 Bdg % inh (human V-1 receptor)	V2 Bdg % inh (V2)	also measured
O=C(Nc1ccc(C(=O)N2CC3COCCN3Cc3ccccc32)c(Cl)c1)c1ccccc1SC(F)F (racemic) [Compound 19, (RS)-2-(Difluoromethylthio)-N-[3-chloro-4-(1,3,4,12a-tetrahydro-6H-[1,4]oxazino[4,3-a][1,4]-benzodiazepin-11(12H)-yl-carbonyl)phenyl]benzamide]	24	7.57			
Cc1ccccc1C(=O)Nc1c(C)cc(C(=O)N2CC3CN(C)CCN3Cc3ccccc32)cc1C (racemic) [Compound 80, (RS)-2-Methyl-N-[2,6-dimethyl-4-(1,3,4,12a-tetrahydro-2-methyl-6H-[1,4]pyrazino[4,3-a][1,4]-benzodiazepin-11(12H)-yl-carbonyl)phenyl]benzamide]			(19%/1 uM)	(6%/0.1 uM)	
O=C(Nc1ccc(C(=O)N2CC3COCCN3Cc3ccccc32)c(Cl)c1)c1cc(F)c(F)c(F)c1F (racemic) [Compound 16, (RS)-2,3,4,5-Tetrafluoro-N-[3-chloro-4-(1,3,4,12a-tetrahydro-6H-[1,4]oxazino[4,3-a][1,4]-benzodiazepin-11(12H)-yl-carbonyl)phenyl]benzamide]	20	7.60			
Cc1cccc(C(=O)Nc2ccc(C(=O)N3CC4CSCCN4Cc4ccccc43)c(Cl)c2)c1I (racemic) [Compound 42, (RS)-2-Iodo-3-methyl-N-[3-chloro-4-(1,3,4,12a-tetrahydro-6H-[1,4]thiazino[4,3-a][1,4]-benzodiazepin-11(12H)-yl-carbonyl)phenyl]benzamide]				(62%/0.1 uM)	V1 Bdg (% inh, 0.1 uM) (human V-1 receptor): 0%
CN1CCN2Cc3ccccc3N(C(=O)c3ccc(NC(=O)c4ccccc4-c4ccccc4)cc3F)CC2C1 (racemic) [Compound 70, (RS)-2-Phenyl-N-[3-fluoro-4-(1,3,4,12a-tetrahydro-2-methyl-6H-[1,4]pyrazino[4,3-a][1,4]-benzodiazepin-11(12H)-yl-carbonyl)phenyl]benzamide]			(9%/1 uM)	(44%/0.1 uM)	
Cc1ccccc1C(=O)Nc1ccc(C(=O)N2CC3COCCN3Cc3ccccc32)c(Cl)c1 (racemic) [Compound 24, (RS)-2-Methyl-N-[3-chloro-4-(1,3,4,12a-tetrahydro-6H-[1,4]oxazino[4,3-a][1,4]-benzodiazepin-11(12H)-yl-carbonyl)phenyl]benzamide]	34	7.80			
O=C(Nc1ccc(C(=O)N2CC3CN(CC(F)(F)F)CCN3Cc3ccccc32)c(Cl)c1)c1ccccc1-c1ccccc1 (racemic) [Compound 91, (RS)-2-Phenyl-N-[3-chloro-4-(1,3,4,12a-tetrahydro-2-(2,2,2-trifluoroethyl)-6H-[1,4]pyrazino[4,3-a][1,4]-benzodiazepin-11(12H)-yl-carbonyl)phenyl]benzamide]			(2%/1 uM)	(31%/0.1 uM)	
(RS)-3,5-Dichloro-N-[3-chloro-4-(1,3,4,12a-tetrahydro-6H-[1,4]thiazino[4,3-a][1,4]-benzodiazepin-11(12H)-yl-carbonyl)phenyl]benzamide [Compound 43]				(47%/0.1 uM)	V1 Bdg (% inh, 0.1 uM) (human V-1 receptor): 11%
(RS)-2-Chloro-5-trifluoromethyl-N-[3-chloro-4-(1,3,4,12a-tetrahydro-6H-[1,4]oxazino[4,3-a][1,4]-benzodiazepin-11(12H)-yl-carbonyl)phenyl]benzamide [Compound 17]				(63%/0.1 uM)	V1 Bdg (% inh, 0.1 uM) (human V-1 receptor): 13%
Cc1ccc2c(c1)CN1CCSCC1CN2C(=O)c1ccc(NC(=O)c2ccccc2-c2ccccc2)cc1 (racemic) [Compound 36, (RS)-2-Phenyl-N-[4-(8-methyl-1,3,4,12a-tetrahydro-6H-[1,4]thiazino[4,3-a][1,4]-benzodiazepin-11(12H)-yl-carbonyl)phenyl]benzamide]	76	7.74			
Cc1ccccc1C(=O)Nc1ccc(C(=O)N2CC3COCCN3Cc3ccccc32)c(C)c1 (racemic) [Compound 27, (RS)-2-M ethyl-N-[3-methyl-4-(1,3,4,12a-tetrahydro-6H-[1,4]oxazino[4,3-a][1,4]-benzodiazepin-11(12H)-yl-carbonyl)phenyl]benzamide]	7	7.89			
COc1cc(NC(=O)c2ccccc2C)ccc1C(=O)N1CC2CN(C)CCN2Cc2ccccc21 (racemic) [Compound 83, (RS)-2-Methyl-N-[3-methoxy-4-(1,3,4,12a-tetrahydro-2-methyl-6H-[1,4]pyrazino[4,3-a][1,4]-benzodiazepin-11(12H)-yl-carbonyl)phenyl]benzamide]			(44%/1 uM)	(10%/0.1 uM)	
CN1CCN2Cc3ccccc3N(C(=O)c3ccc(NC(=O)c4ccccc4-c4ccccc4)cc3)CC2C1 (racemic) [Compound 69, (RS)-2-Phenyl-N-[4-(1,3,4,12a-tetrahydro-2-methyl-6H-[1,4]pyrazino[4,3-a][1,4]-benzodiazepin-11(12H)-yl-carbonyl)phenyl]benzamide]			(22%/1 uM)	(38%/0.1 uM)	
O=C(Nc1ccc(C(=O)N2C[C@H]3COCCN3Cc3ccccc32)c(Cl)c1)c1ccccc1-c1cccc(O)c1 [Compound 7, (S)-2-(3-Hydroxyphenyl)-N-[3-chloro-4-(1,3,4,12a-tetrahydro-6H-[1,4]oxazino[4,3-a][1,4]-benzodiazepin-11(12H)-yl-carbonyl)phenyl]benzamide]	1	7.96			
Cc1cc(NC(=O)c2ccccc2-c2ccccc2)ccc1C(=O)N1CC2COCCN2Cc2ccccc21 (racemic) [Compound 29, (RS)-2-Phenyl-N-[3-methyl-4-(1,3,4,12a-tetrahydro-6H-[1,4]oxazino[4,3-a][1,4]-benzodiazepin-11(12H)-yl-carbonyl)phenyl]benzamide]	3	8.22			
COc1cc(C(=O)N2CC3COCCN3Cc3ccccc32)ccc1NC(=O)c1ccccc1-c1ccccc1 (racemic) [Compound 15, (RS)-2-Phenyl-N-[2-methoxy-4-(1,3,4,12a-tetrahydro-6H-[1,4]oxazino[4,3-a][1,4]-benzodiazepin-11(12H)-yl-carbonyl)phenyl]benzamide]	69	7.89			
Cc1cccc(C(=O)Nc2ccc(C(=O)N3CC4COCCN4Cc4ccccc43)c(Cl)c2)c1C (racemic) [Compound 11, (RS)-2,3-Dimethyl-N-[3-chloro-4-(1,3,4,12a-tetrahydro-6H-[1,4]oxazino[4,3-a][1,4]-benzodiazepin-11(12H)-yl-carbonyl)phenyl]benzamide]	11	8.10			
O=C(Nc1ccc(C(=O)N2CC3COCCN3Cc3ccccc32)cc1)c1ccccc1-c1ccccc1 (racemic) [Compound 20, (RS)-2-Phenyl-N-[4-(1,3,4,12a-tetrahydro-6H-[1,4]oxazino[4,3-a][1,4]-benzodiazepin-11(12H)-yl-carbonyl)phenyl]benzamide]	69	8.10			
O=C(Nc1ccc(C(=O)N2CC3CSCCN3Cc3cc(F)c(F)cc32)cc1)c1ccccc1-c1ccccc1 (racemic) [Compound 35, (RS)-2-Phenyl-N-[4-(8,9-difluoro-1,3,4,12a-tetrahydro-6H-[1,4]thiazino[4,3-a][1,4]-benzodiazepin-11(12H)-yl-carbonyl)phenyl]benzamide]		7.42			inhibition at 10 µM (human V-1 receptor; 10 uM, read-out: V1 Bdg % inh): 15%
CN1CCN2Cc3ccccc3N(C(=O)c3ccc(NC(=O)c4c(F)cccc4F)cc3Cl)CC2C1 (racemic) [Compound 99, (RS)-2,6-Difluoro-N-[3-chloro-4-(1,3,4,12a-tetrahydro-2-methyl-6H-[1,4]pyrazino[4,3-a][1,4]-benzodiazepin-11(12H)-yl-carbonyl)phenyl]benzamide]			(12%/1 uM)	(10%/0.1 uM)	
O=C(Nc1ccc(C(=O)N2CC3COCCN3Cc3ccccc32)cc1O)c1ccccc1-c1ccccc1 (racemic) [Compound 22, (RS)-2-Phenyl-N-[2-hydroxy-4-(1,3,4,12a-tetrahydro-6H-[1,4]oxazino[4,3-a][1,4]-benzodiazepin-11(12H)-yl-carbonyl)phenyl]benzamide]	67	8.22			
(RS)-2-(2-Fluoro-phenyl)-N-[4-(1,3,4,12a-tetrahydro-6H-[1,4]thiazino[4,3-a][1,4]-benzodiazepin-11(12H)-yl-carbonyl)phenyl]benzamide [Compound 45]				(69%/0.1 uM)	V1 Bdg (% inh, 0.1 uM) (human V-1 receptor): 15%
COc1cc(NC(=O)c2ccccc2-c2ccccc2)ccc1C(=O)N1CC2CN(C)CCN2Cc2ccccc21 (racemic) [Compound 84, (RS)-2-Phenyl-N-[3-methoxy-4-(1,3,4,12a-tetrahydro-2-methyl-6H-[1,4]pyrazino[4,3-a][1,4]-benzodiazepin-11(12H)-yl-carbonyl)phenyl]benzamide]			(10%/1 uM)	(36%/0.1 uM)	

— US6713475B2, “Tricyclic benzodiazepines as vasopressin receptor antagonists” (Ortho-McNeil Pharmaceutical, Inc., priority 1999, dated 2004)
